# In patent publication US20130123618A1, “Imaging Agents” (priority 2008, published 2013):
# Tests used:
# [1] = system: DU145, human prostate cancer cells implanted in flanks; assay: tissue distribution in SCID mice bearing DU145 tumors; type: in vivo; details: for tissue distribution, blood / tissue distribution, bone / tissue distribution, brain / tissue distribution, heart / tissue distribution, kidney / tissue distribution, liver / tissue distribution, lung / tissue distribution, muscle / tissue distribution, pancreas / tissue distribution, spleen / tissue distribution, tumor: DU145 tumor-bearing SCID mice, tail vein, ave
# Procedure: For the in vitro amino acid uptake studies, all cells can be grown to monolayer confluency in T-175 culture flasks [Corning, Corning, N.Y.] (approx. 1×10^8 cells/flask) in Dulbecco's Modified Eagle's Medium (DMEM) [Sigma, St. Louis, Mo.] in a humidified incubator (37° C., 5% CO2/95% air). Media are supplemented with 10% fetal calf serum [Hyclone, Logan, Utah], and antibiotics (10,000 U/ml penicillin and 10 mg/ml streptomycin) (Sigma, St. Louis, Mo.). For tissue culture passage, monolayer cells are detached by gentle trypsinization, resuspended in complete media, and split 1:10 into new T-flasks. Cultures are passaged weekly, and fed fresh media every 2 to 3 days. To initiate tumor growth in SCID mice, 1×10^6 cells are injected s.c. bilaterally into the flanks (inguinal region) of the recipient animals using a 1 ml syringe with a 27 gauge needle. Ex vivo experiments can be performed with animals containing tumors weighing between 500 mg and 1 g, as estimated by caliper measurement (tumor weight=(π/6)*abc, where a, b and c are the tumor length, width and height, respectively).
# Tissue distribution of the compounds is measured in SCID mice (average weight, 20-25 g) bearing human tumors as follows. The candidate radioligands (20 uCi in 0.4 ml 0.9% NaCl) are injected into the tail vein of tumor-bearing mice. […] Tissues (blood, heart, liver, lungs, kidneys, bone, thyroid, muscle, brain and tumor) are excised, rinsed in saline, and blotted dry. The tissues are weighed, placed into 12×75 mm glass vials, the radioactivity determined with a gamma counter, and the percent dose/gram calculated. Total activities of blood and muscle are calculated by assuming that they account for 7% and 40% of the total body mass, respectively.
# Tables 3-7 show the results of the biodistribution studies with the separate enantiomers of anti-2-[^18F]FACPC and racemic anti-2-[^18F]FACBC as a comparison in SCiD mice implanted in their flanks with A549, human lung cancer cells and DU145, human prostate cancer cells.
# tumor cells = assay: overall conclusion of uptake studies in cancer cells in vitro; type: cell-based
# Procedure: In the in vitro studies the uptake rate of each amino acid compound is measured in each tumor line, as well as the dominant transport mechanisms of each tumor cell line. After trypsinization, cells are resuspended in serum-free media, then counted on a hemocytometer, with viability assessed through Trypan blue staining. Approximately 1×10^7 cells are exposed to each compound (15 μCi) in 15 ml of amino acid free media for 5, 10, 15, 30 and 60 minutes at 37° C. Cells are then centrifuged at 150×g for 5 minutes, rinsed in 5 ml cold-saline, recentrifuged, resuspended in 3 ml saline, and placed into 12×75 mm glass vials (Fisher, Pittsburgh, Pa.). The vials are placed in a Cobra-II gamma counter (Packard, Meriden, Conn.), with the activity per cell number determined. Inhibition studies determine the dominant transport mechanism (L, A or ASC) for each line [Martarello et al. (2002) supra; McConathy et al. (2003) supra]. For these studies, cells are exposed to the compounds for 30 minutes in amino acid free media containing one of three inhibitors (2-amino-norbornyl-2-carboxylic acid (BCH), 10 mM; α-(methylamino)-isobutyric acid (MeAlB), 10 mM; and an alanine-serine-cysteine mixture 1:1:1 (acs), 10 mM). Saline washes are performed as described above, and the filtered cells' radioactivity determined on the gamma counter. Comparisons with the 30 minute control uptake indicate the major transporters used. Results of these studies are found in FIGS. 1-18.
# Approximately 10^6 cells were exposed to the [^18F]amino acid candidate (5 μCi) in 3 ml of amino acid-free media±transporter inhibitors (10 mM) for 30 minutes under incubation conditions by the method previously described (McConathy, J.; Martarello, L.; Malveaux, E.; Camp, V.; Bowers, G.; Olson, J.; Goodman, M. (2002) Radiolabeled amino acids for tumor imaging with PET: radiosynthesis and biological evaluation of [^18F]2-amino-3-fluoro-2-methylpropanoic acid and [^18F]3-fluoro-2-methyl-2-(methylamino)-propanoic acid. J. Med. Chem. 45, 2240-2249). The inhibition studies determined the dominant transport mechanism (L, A) for each candidate PET amino acid for each tumor model. 2-Methylaminoisobutyric acid (MeAlB) and 2-aminobicyclo-[2.2.1]-heptane-2-carboxylic acid (BCH) serve as inhibitors for the “A”, “L” transport systems, respectively.
# [2] = system: MIA PaCa-2 Human Pancreas carcinoma cells; assay: in vitro amino acid uptake in MIA PaCa-2 cells; type: cell-based
# Procedure: Compounds have been evaluated in vitro for tumor binding specificity (i.e. uptake cells) using a variety of tumor cell lines available in the art, along with reference compounds such as Me-AlB and BCH. Detailed description of these assays can be found in Martarello et al. (2002) Journal of Medicinal Chemistry, 45:2250-2259 and McConathy et al. (2003) Nuclear Medicine and Biology, 30:477-490. […]
# In the in vitro studies the uptake rate of each amino acid compound is measured in each tumor line, as well as the dominant transport mechanisms of each tumor cell line. After trypsinization, cells are resuspended in serum-free media, then counted on a hemocytometer, with viability assessed through Trypan blue staining. […] The vials are placed in a Cobra-II gamma counter (Packard, Meriden, Conn.), with the activity per cell number determined. […] Saline washes are performed as described above, and the filtered cells' radioactivity determined on the gamma counter. […]
# The uptake of all compounds were measured in human and rat cancer cell lines and the dominant transport (“A” and “L”) mechanism of each culture were determined. […]
structure (smiles),measurement,setting,value
NC1(C(=O)O)CCC1[18F] (racemic) [racemic anti-2-[^18F]FACBC],"tissue distribution, blood",[1]; 15 min,2.80 percent dose/gram
same,"tissue distribution, bone",[1]; 15 min,1.06 percent dose/gram
same,"tissue distribution, brain",[1]; 15 min,0.17 percent dose/gram
same,"tissue distribution, heart",[1]; 15 min,2.07 percent dose/gram
same,"tissue distribution, kidney",[1]; 15 min,6.82 percent dose/gram
same,"tissue distribution, liver",[1]; 15 min,2.32 percent dose/gram
same,"tissue distribution, lung",[1]; 15 min,3.35 percent dose/gram
same,"tissue distribution, muscle",[1]; 15 min,0.83 percent dose/gram
same,"tissue distribution, pancreas",[1]; 15 min,29.02 percent dose/gram
same,"tissue distribution, spleen",[1]; 15 min,4.38 percent dose/gram
same,"tissue distribution, tumor",[1]; 15 min,2.95 percent dose/gram
same,"tissue distribution, blood",[1]; 30 min,1.86 percent dose/gram
same,"tissue distribution, bone",[1]; 30 min,1.63 percent dose/gram
same,"tissue distribution, brain",[1]; 30 min,0.16 percent dose/gram
same,"tissue distribution, heart",[1]; 30 min,1.82 percent dose/gram
same,"tissue distribution, kidney",[1]; 30 min,4.47 percent dose/gram
same,"tissue distribution, liver",[1]; 30 min,2.09 percent dose/gram
same,"tissue distribution, lung",[1]; 30 min,2.32 percent dose/gram
same,"tissue distribution, muscle",[1]; 30 min,1.00 percent dose/gram
same,"tissue distribution, pancreas",[1]; 30 min,29.29 percent dose/gram
same,"tissue distribution, spleen",[1]; 30 min,4.74 percent dose/gram
same,"tissue distribution, tumor",[1]; 30 min,3.54 percent dose/gram
same,"tissue distribution, blood",[1]; 60 min,0.80 percent dose/gram
same,"tissue distribution, bone",[1]; 60 min,2.22 percent dose/gram
same,"tissue distribution, brain",[1]; 60 min,0.18 percent dose/gram
same,"tissue distribution, heart",[1]; 60 min,1.32 percent dose/gram
same,"tissue distribution, kidney",[1]; 60 min,1.82 percent dose/gram
same,"tissue distribution, liver",[1]; 60 min,1.23 percent dose/gram
same,"tissue distribution, lung",[1]; 60 min,1.18 percent dose/gram
same,"tissue distribution, muscle",[1]; 60 min,1.15 percent dose/gram
same,"tissue distribution, pancreas",[1]; 60 min,15.01 percent dose/gram
same,"tissue distribution, spleen",[1]; 60 min,2.85 percent dose/gram
same,"tissue distribution, tumor",[1]; 60 min,2.57 percent dose/gram
same,"tissue distribution, blood",[1]; 120 min,0.39 percent dose/gram
same,"tissue distribution, bone",[1]; 120 min,0.66 percent dose/gram
same,"tissue distribution, brain",[1]; 120 min,0.13 percent dose/gram
same,"tissue distribution, heart",[1]; 120 min,0.82 percent dose/gram
same,"tissue distribution, kidney",[1]; 120 min,0.78 percent dose/gram
same,"tissue distribution, liver",[1]; 120 min,0.43 percent dose/gram
same,"tissue distribution, lung",[1]; 120 min,0.46 percent dose/gram
same,"tissue distribution, muscle",[1]; 120 min,0.72 percent dose/gram
same,"tissue distribution, pancreas",[1]; 120 min,5.92 percent dose/gram
same,"tissue distribution, spleen",[1]; 120 min,0.87 percent dose/gram
same,"tissue distribution, tumor",[1]; 120 min,1.85 percent dose/gram
same,uptake of radioactivity in the tumors compared with muscle,"[1]; DU145 tumors, SCID mice, time points sampled post injection",greater than muscle
same,selective uptake in tumor cells,tumor cells,selectively taken up in tumor cells
"N[C@]1(C(=O)O)CCC[C@@H]1[18F] (single isomer, unassigned; enantiomer 1) [Enantiomer 1, anti-2-[^18F]FACPC]",in vivo uptake compared with racemic 2-[^18F]FACBC,[1]; DU 145 cells implanted subcutaneously in flanks of SCID mice,significantly higher in vivo uptake than racemic 2-[^18F]FACBC
same,"tissue distribution, blood",[1]; 15 min,3.69 percent dose/gram
same,"tissue distribution, bone",[1]; 15 min,2.89 percent dose/gram
same,"tissue distribution, brain",[1]; 15 min,0.70 percent dose/gram
same,"tissue distribution, heart",[1]; 15 min,3.76 percent dose/gram
same,"tissue distribution, kidney",[1]; 15 min,8.83 percent dose/gram
same,"tissue distribution, liver",[1]; 15 min,4.34 percent dose/gram
same,"tissue distribution, lung",[1]; 15 min,4.38 percent dose/gram
same,"tissue distribution, muscle",[1]; 15 min,2.23 percent dose/gram
same,"tissue distribution, pancreas",[1]; 15 min,47 percent dose/gram
same,"tissue distribution, spleen",[1]; 15 min,7.4 percent dose/gram
same,"tissue distribution, tumor",[1]; 15 min,3.82 percent dose/gram
same,"tissue distribution, blood",[1]; 30 min,2.44 percent dose/gram
same,"tissue distribution, bone",[1]; 30 min,3.06 percent dose/gram
same,"tissue distribution, brain",[1]; 30 min,0.49 percent dose/gram
same,"tissue distribution, heart",[1]; 30 min,2.71 percent dose/gram
same,"tissue distribution, kidney",[1]; 30 min,5.36 percent dose/gram
same,"tissue distribution, liver",[1]; 30 min,2.74 percent dose/gram
same,"tissue distribution, lung",[1]; 30 min,2.78 percent dose/gram
same,"tissue distribution, muscle",[1]; 30 min,2.31 percent dose/gram
same,"tissue distribution, pancreas",[1]; 30 min,28 percent dose/gram
same,"tissue distribution, spleen",[1]; 30 min,6.70 percent dose/gram
same,"tissue distribution, tumor",[1]; 30 min,3.54 percent dose/gram
same,"tissue distribution, blood",[1]; 60 min,1.7 percent dose/gram
same,"tissue distribution, bone",[1]; 60 min,2.58 percent dose/gram
same,"tissue distribution, brain",[1]; 60 min,0.62 percent dose/gram
same,"tissue distribution, heart",[1]; 60 min,2.2 percent dose/gram
same,"tissue distribution, kidney",[1]; 60 min,4.07 percent dose/gram
same,"tissue distribution, liver",[1]; 60 min,1.96 percent dose/gram
same,"tissue distribution, lung",[1]; 60 min,1.91 percent dose/gram
same,"tissue distribution, muscle",[1]; 60 min,2.15 percent dose/gram
same,"tissue distribution, pancreas",[1]; 60 min,22 percent dose/gram
same,"tissue distribution, spleen",[1]; 60 min,2.79 percent dose/gram
same,"tissue distribution, tumor",[1]; 60 min,3.07 percent dose/gram
same,% Dose uptake per 0.5 × 10−6 Cells,[2],6.8 % Dose/0.5 × 10^−6
same,selective uptake in tumor cells,tumor cells,selectively taken up in tumor cells
same,in vitro uptake in cancer cells compared with enantiomer 2,tumor cells; in vitro in cancer cells,greater uptake than enantiomer 2
